What was measured:
SK-MEL-147 [1] = experiment: MTT cytotoxicity assay; type: cell-based, Human; conditions: for IC50: Homo sapiens
From the text: (§1) Human cell lines were used throughout this program. SK-MEL-19 (melanoma BRAF^V600E, NRAS^WT), SK-MEL-28 (melanoma BRAF^V600E, NRAS^WT), SK-MEL-147 (melanoma BRAF^WT, NRAS^Q61R), MRC-5 (fibroblasts), and primary fibroblast (FDH) were kindly provided by Professor Glaucia Santelli (University of São Paulo, Brazil). MCF7 (breast adenocarcinoma, ATCC HTB-22), and HCT-116 (colorectal carcinoma, ATCC 247) cells were obtained from American Type Culture Collection (ATCC) and deposited in the Cell Bank of Rio de Janeiro, Brazil. WM293A (metastatic melanoma BRAF^V600D, NRAS^WT), 501mel (metastatic melanoma BRAF^V600E; NRAS^G12D), and MM200 (melanoma BRAF^V600E, NRAS^WT) were kindly provided by Professor Sharon Prince, University of Cape Town, South Africa. All human melanoma and breast cell lines were cultivated with Dulbecco’s Modified Eagle Medium: Nutrient Mixture F-12 (Thermo Fisher Scientific, San Jose, CA, USA). MM200 and HCT-116 were maintained with Roswell Park Memorial Institute (RPMI) medium (Thermo Fisher Scientific, San Jose, CA, USA). Unless stated otherwise, media was supplemented with 10% fetal bovine serum (FBS) and 1% penicillin-streptomycin (Thermo Fisher Scientific, San Jose, CA, USA). Cells were incubated with 5% CO2 at 37 °C. When required, cells were detached from flask using trypsin-EDTA 0.05% (Thermo Fisher Scientific, San Jose, CA, USA).
(§2) Cytotoxic activity was evaluated by the transformation of 3-(4,5-dimethylthiazol-2-yl)-2,5-diphenyltetrazolium bromide (MTT; Thermo Fisher Scientific, San Jose, CA, USA) into formazan by viable cells. Cells were plated in a 96-well plate (1 × 10^4 cells/well) and, 24 h later, exposed to serial dilutions of the test compounds (from 0.00032 to 5.0 µM) for 24, 48, and 72 h. For each analysis, negative controls received 0.5% DMSO and positive control was delivered by doxorubicin (DOX; 0.05 to 10.0 µM). At the end of the incubation periods, the medium was replaced with fresh medium containing 0.5 mg/mL of MTT and supernatant was removed 3 h later. The plates were dried at 50 °C for 30 min and formazan was solubilized in DMSO (150 µL/well) for the absorbance measure at 570 nm on a plate reader (Thermo Fisher Scientific, San Jose, CA, USA). IC50 values (half-maximal inhibitory concentration) along with 95% CI (confidence intervals) were calculated by non-linear regression using GraphPad Prism 8.0 software (GraphPad Software, Inc., San Diego, CA, USA).

SK-MEL-28 [2] = experiment: MTT cytotoxicity assay; type: cell-based, Human; conditions: for IC50: Homo sapiens
From the text: as §1, §2

DCD gene [3] = experiment: DCD gene expression by qPCR in SK-MEL-28; type: cell-based, Human; conditions: SK-MEL-28, 24 h
Experimental: (§3) […] (2.5 × 10^5) cells in 1 mL of media were seeded in cell culture dishes and, 24 h later, treated with SQ1 (0.3 µM and 0.6 µM for SK-MEL-28 and 0.9 µM and 1.8 µM for SK-MEL-147) or SQ2 (0.05 µM and 0.1 µM for SK-MEL-28 and 0.6 µM and 1.2 µM for SK-MEL-147) for 24 h. Doxorubicin (DOX; 1.4 µM for SK-MEL-28 and 0.8 µM for SK-MEL-147) was used as positive control and 0.5% DMSO as negative control.
(§4) Treated cells (Section 4.6) had their total RNA extracted and purified using TRIzol reagent (Thermo Fisher Scientific, San Jose, CA, USA), in accordance with the manufacturer’s recommendations. For analysis of DCD expression, purified total RNA was quantified using an Eon Microplate Spectrophotometer (BioTek Instruments, Winooski, VT, USA). Quantitative PCR (qPCR) was conducted on a Rotor Gene 6000 real-time cycler (Corbett Life Science, Sydney, NSW, Australia) using GoTaq 1-Step RT-qPCR System (Promega, Madison, WI, EUA). The cycle conditions were as follows: 45 °C for 10 min, 95 °C for 15 min and 40 cycles of 95 °C for 15 s; 60 °C for 60 s, followed by the melt. Relative expression was calculated using the comparative CT method Delta-Delta-Ct (DDCt). The primer sequences and concentrations utilized (DCD and RPLPO) can be consulted in Table S3.

DCD gene [4] = experiment: DCD gene expression by qPCR in SK-MEL-147; type: cell-based, Human; conditions: SK-MEL-147, 24 h
Experimental: as §3, §4

SK-MEL-147 [5] = experiment: Western blotting of apoptosis and autophagy markers; type: cell-based, Human; conditions: SK-MEL-147, 24 h
Experimental: as §3
(§5) Treated cells (Section 4.6) had their proteins extracted with the following solution: 10 mM ethylenediaminetetraacetic acid (EDTA), 10% triton, 2 mM phenylmethanesulfonyl fluoride (PMSF), 10 mM Tris base, 10 mM sodium pyrophosphate, 100 mM sodium fluoride, 2.5 mM sodium orthovanadate, and deionized water. The resulting extract was quantified for protein concentration and 30 µg of protein were subjected to SDS-PAGE and to Western blot analysis with the indicated antibodies: cleaved PARP-1 (#5625), PARP1 (#9542), cleaved caspase-3 (#9604), caspase-3 (#9662), SQSTM1/p62 (#5114), LC3B (#2775), and α-tubulin (#2144) from Cell Signaling Technology (Danvers, MA, USA). Images of membranes were made using Pierce ECL Western Blotting Substrate (Thermo Fisher Scientific, San Jose, CA, USA) and G:BOX Chemi XRQ (Syngene, Cambridge, UK). Band intensities were quantified using UN-SCAN-IT gel 6.1 software (Silk Scientific; Orem, UT, USA).

SK-MEL-28 [6] = experiment: as above; type: cell-based, Human; conditions: SK-MEL-28, 24 h
Experimental: as §3, §5

MRC-5 = experiment: MTT cytotoxicity assay; conditions: MRC-5 non-tumor fibroblasts, 72 h treatment, MTT
[7] = SK-MEL-147, 24 h, SK-MEL-147, 24h treatment, MTT
[8] = SK-MEL-147, 48 h, SK-MEL-147, 48h treatment, MTT
[9] = SK-MEL-147, 72 h, SK-MEL-147, 72 h treatment, MTT
[10] = SK-MEL-147, SK-MEL-147, 24h treatment, 1h pre-treated with 30 nM bafilomycin A1
[11] = SK-MEL-147, SK-MEL-147, 24h treatment, 1h pre-treated with 20 µM Z-VAD-FMK
[12] = SK-MEL-147, SK-MEL-147, 24h treatment, no pre-treatment (Table S4)
[13] = SK-MEL-147 versus FDH, 72-h IC50 ratio
[14] = SK-MEL-147 versus MRC-5, 72-h IC50 ratio
[15] = SK-MEL-28, 24 h, SK-MEL-28, 24h treatment, MTT
[16] = SK-MEL-28, 48 h, SK-MEL-28, 48h treatment, MTT
[17] = SK-MEL-28, 72 h, SK-MEL-28, 72 h treatment, MTT
[18] = SK-MEL-28, SK-MEL-28, 24h treatment, 1h pre-treated with 30 nM bafilomycin A1
[19] = SK-MEL-28, SK-MEL-28, 24h treatment, 1h pre-treated with 20 µM Z-VAD-FMK
[20] = SK-MEL-28, SK-MEL-28, 24h treatment, no pre-treatment (Table S4)
[21] = SK-MEL-28 versus FDH, 72-h IC50 ratio
[22] = SK-MEL-28 versus MRC-5, 72-h IC50 ratio

| Structure (SMILES) | IC50 (SK-MEL-147 [1]; [7]) | IC50 (SK-MEL-147 [1]; [8]) | IC50 (SK-MEL-147 [1]; [9]) | IC50 (SK-MEL-147 [1]; [10]) | IC50 (SK-MEL-147 [1]; [11]) | IC50 (SK-MEL-147 [1]; [12]) | Selectivity Index (SI) (SK-MEL-147 [1]; [13]) | Selectivity Index (SI) (SK-MEL-147 [1]; [14]) | IC50 (SK-MEL-28 [2]; [15]) | IC50 (SK-MEL-28 [2]; [16]) | IC50 (SK-MEL-28 [2]; [17]) | IC50 (SK-MEL-28 [2]; [18]) | IC50 (SK-MEL-28 [2]; [19]) | IC50 (SK-MEL-28 [2]; [20]) | Selectivity Index (SI) (SK-MEL-28 [2]; [21]) | Selectivity Index (SI) (SK-MEL-28 [2]; [22]) | apoptotic markers (cleaved PARP-1, cleaved caspase-3) (SK-MEL-147 [5]) | apoptotic markers (cleaved PARP-1, cleaved caspase-3) (SK-MEL-28 [6]) | IC50 (MRC-5; Homo sapiens, MRC5, 72 h) | also measured |
| --- | --- | --- | --- | --- | --- | --- | --- | --- | --- | --- | --- | --- | --- | --- | --- | --- | --- | --- | --- | --- |
| O=c1c2ccccc2c(=O)c2c1sc1c(=O)c3ccccc3c(=O)c12 [SQ1, seriniquinone] | 1790 nM | 1610 nM | 130 nM | 2260 nM | 1890 nM | 1640 nM | 8.8 | 4.9 | 560 nM | 690 nM | 150 nM | 140 nM | 700 nM | 350 nM | 7.7 | 4.3 | increase of typical apoptotic markers | increase of typical apoptotic markers | 640 nM | DCD expression increase relative to control (DCD gene [3]; 0.3 µM): twofold; DCD expression increase relative to control (DCD gene [3]; 0.6 µM): 20 times; DCD expression relative to control (DCD gene [4]; 1.8 µM): twofold; autophagic flux (p62) (SK-MEL-28 [6]): extinction of p62; IC50 (MRC-5): 600 nM |
| CC(C)(O)C(O)CCc1ccc2c(=O)c3sc4c(=O)c5ccccc5c(=O)c4c3c(=O)c2c1 (stereo not drawn) [SQ2] | 1260 nM | 890 nM | 100 nM | 1180 nM | 1280 nM | 910 nM | 11.7 | 15.7 | 140 nM | 260 nM | 40 nM | 60 nM | 370 nM | 240 nM | 29.3 | 39.3 | increase of typical apoptotic markers | increase of typical apoptotic markers | 1570 nM | DCD expression up-regulation relative to control (DCD gene [3]; 0.1 µM): three; DCD overexpression relative to control (DCD gene [4]; 1.2 µM): eight |

Reference: paper PMC8658889, “Seriniquinones as Therapeutic Leads for Treatment of BRAF and NRAS Mutant Melanomas” (Molecules, 2021)
